Laboratory results taken from patent US10898469B2, “Imidazolylamide derivative” (Sumitomo Dainippon Pharma Co., Ltd., priority 2016, dated 2021).
Where a name gives a salt, the structure may show the parent alone.

Tests used:
Assay type in all cases: cell-based, human
HT-29 cells [1] = assay: Inhibition test for sphere-forming ability of cancer cells in the presence of BSA (Test Example 2), HT-29; conditions: in the presence of 5% BSA, cultured 4 days
Description: (§1) Human colorectal cancer-derived HCT-116 cells, human colon-adenocarcinoma-derived HT-29 cells, and human pharyngeal cancer-derived FaDu cells were available from American Type Culture Collection (ATCC). HCT-116 cells and HT-29 cells were cultured at 37° C. under 5% CO2 using the McCoy's 5a medium containing 10% fetal bovine serum (FBS) and 1% penicillin/streptomycin, and FaDu cells were cultured at 37° C. under 5% CO2 using the MEM medium containing 10% FBS, 1% non-essential amino acid, 1% sodium pyruvate, 5% bovine serum albumin (BSA), and 1% penicillin/streptomycin. HCT-116 cells, HT-29 cells, and FaDu cells were seeded in a 384 Well Black Clear Bottom Ultra-Low Attachment Microplate (Corning Cat. No. 3827) in an amount of 350-800 cells/well using the DMEM/F12 medium containing 2% B27 supplement (GIBCO), 20 ng/mL epidermal growth factor (EGF) (peprotech), 10 ng/mL basic fibroblast growth factor (bFGF) (peprotech), 5 μg/mL insulin (Sigma), 5% bovine serum albumin (BSA), and 1% penicillin/streptomycin. Each test compound was added into each well to adjust the final concentration of DMSO to 0.1%, and the cells were cultured for 4 days. The number of viable cells in each well was then measured with CellTiter-Glo® Luminescent Cell Viability Assay (Promega) to calculate the concentration of each test compound for 50% inhibition of cell proliferation (Sphere IC50 value; μmol/L).
(§2) The experiment of Test Example 2 was performed for each compound of each Example.
(§3) The concentration of each test compound for 50% inhibition of cell proliferation (Sphere IC50 value; μmol/L) is shown in the following Table.

HCT-116 cells [2] = assay: Inhibition test for sphere-forming ability of cancer cells in the presence of BSA (Test Example 2), HCT-116; conditions: for IC50: HCT-116 cells, in the presence of 5% BSA, cultured 4 days; for inhibitory effect on the sphere-forming ability of cancer cells: Test Example 2, in the presence of 5% BSA, summary in words, cell line not given (HCT-116, HT-29, FaDu tested)
Method in brief: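 Spheres grown 4 days in ultra-low-attachment wells, 350-800 cells/well, in DMEM/F12 with 2% B27, 20 ng/mL EGF, 10 ng/mL bFGF, 5 μg/mL insulin and 5% BSA; 0.1% DMSO final. Viable cells read by CellTiter-Glo luminescence; Sphere IC50 (μmol/L) for 50% proliferation inhibition.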

FaDu cells [3] = assay: Inhibition test for sphere-forming ability of cancer cells in the presence of BSA (Test Example 2), FaDu; conditions: in the presence of 5% BSA, cultured 4 days
Description: as §1, §2, §3

HT-29 cells [4] = assay: Inhibition test for sphere-forming ability of cancer cells (Test Example 1), HT-29; conditions: concentration for 50% inhibition of cell proliferation, read-out: IC50 (μmol/L) HT-29 (Sphere IC50 value)
Method in brief: (§4)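 HCT-116, HT-29 and FaDu cells seeded at 350-800 cells/well on ultra-low attachment plates in serum-free DMEM/F12 with B27, 20 ng/mL EGF, 10 ng/mL bFGF and 5 μg/mL insulin. Compound given at 0.1% DMSO for 4 days; viable cells measured by CellTiter-Glo to give Sphere IC50 (μmol/L).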

HCT-116 cells [5] = assay: Inhibition test for sphere-forming ability of cancer cells (Test Example 1), HCT-116; conditions: for IC50: HCT-116 cells, concentration for 50% inhibition of cell proliferation, read-out: IC50 (μmol/L) HCT-116 (Sphere IC50 value); for inhibitory effect on the sphere-forming ability of cancer cells: Test Example 1, summary in words, cell line not given (HCT-116, HT-29, FaDu tested)
Method in brief: as §4

FaDu cells [6] = assay: Inhibition test for sphere-forming ability of cancer cells (Test Example 1), FaDu; conditions: concentration for 50% inhibition of cell proliferation, read-out: IC50 (μmol/L) FaDu (Sphere IC50 value)
Method in brief: as §4

| SMILES | IC50 (HT-29 cells [1]; Homo sapiens, 96 h) [nM] | IC50 (HCT-116 cells [2]; Homo sapiens, HCT-116, 96 h) [µM] | inhibitory effect on the sphere-forming ability of cancer cells (HCT-116 cells [2]) | IC50 (FaDu cells [3]; Homo sapiens, 96 h) [nM] | IC50 (HT-29 cells [4]; Homo sapiens) [µmol/L] | IC50 (HCT-116 cells [5]; Homo sapiens) [µmol/L] | inhibitory effect on the sphere-forming ability of cancer cells (HCT-116 cells [5]) | IC50 (FaDu cells [6]; Homo sapiens) [µmol/L] | IC50 (HT-29 cells [1]) [nM] | IC50 (HCT-116 cells [2]) [µM] | IC50 (FaDu cells [3]) [nM] | IC50 (HT-29 cells [4]) [µmol/L] | IC50 (HCT-116 cells [5]) [µmol/L] | IC50 (FaDu cells [6]) [µmol/L] |
| --- | --- | --- | --- | --- | --- | --- | --- | --- | --- | --- | --- | --- | --- | --- |
| COc1ccc(/C=C/C(=O)Nc2cn(Cc3cc(F)c(F)c(F)c3)cn2)cc1OCCO [Example 32, (E)-3-(3-(2-Hydroxyethoxy)-4-methoxyphenyl)-N-(1-(3,4,5-trifluorobenzyl)-1H-imidazol-4-yl)acrylamide] | 60 | 0.06 | particularly potent inhibitory effect | 30 | 0.07 | 0.06 | particularly potent inhibitory effect | 0.06 | – | – | – | – | – | – |
| COc1ccc(/C=C/C(=O)Nc2cn(Cc3cccc(C(F)(F)F)c3)cn2)cc1OCCO [Example 34, (2E)-3-[3-(2-hydroxyethoxy)-4-methoxyphenyl]-N-{1[3-(trifluoromethyl)benzyl]-1H-imidazol-4-yl}prop-2-enamide] | 580 | 0.63 | particularly potent inhibitory effect | 70 | 0.06 | 0.09 | particularly potent inhibitory effect | 0.09 | – | – | – | – | – | – |
| N#Cc1ccc(/C=C/C(=O)Nc2cn(Cc3cccc(Cl)c3)cn2)cc1OCCO [Example 35, (2E)-N-[1-(3-chlorobenzyl)-1H-imidazol-4-yl]-3-[4-cyano-3-(2-hydroxyethoxy)phenyl]prop-2-enamide] | 540 | 0.72 | – | 60 | 0.07 | 0.08 | particularly potent inhibitory effect | 0.08 | – | – | – | – | – | – |
| N#Cc1ccc(/C=C/C(=O)Nc2cn(Cc3cccc(C(F)(F)F)c3)cn2)cc1OCCO [Example 36, (E)-3-(4-Cyano-3-(2-hydroxyethoxy)phenyl)-N-(1-(3-(trifluoromethyl)benzyl)-1H-imidazol-4-yl)acrylamide] | 520 | 0.69 | particularly potent inhibitory effect | 60 | 0.06 | 0.08 | particularly potent inhibitory effect | 0.08 | – | – | – | – | – | – |
| Cl.O=C(/C=C/c1ccc(F)c(O)c1)Nc1cn(Cc2cccc(C(F)(F)F)c2)cn1 [Example 37, (E)-3-(4-Fluoro-3-hydroxyphenyl)-N-(1-(3-(trifluoromethyl)benzyl)-1H-imidazol-4-yl)acrylamide Hydrochloride] | 100 | 0.55 | particularly potent inhibitory effect | < 10 | 0.93 | 0.25 | particularly potent inhibitory effect | < 0.01 | – | – | – | – | – | – |
| Cl.O=C(/C=C/c1ccc(F)c(O)c1)Nc1cn(Cc2cccc(Cl)c2)cn1 [Example 38] | 580 | 0.72 | – | 30 | 0.89 | 0.15 | particularly potent inhibitory effect | < 0.01 | – | – | – | – | – | – |
| O=C(/C=C/c1ccc(F)c(OCCO)c1)Nc1cn(Cc2cccc(C(F)(F)F)c2)cn1 [Example 39, (E)-3-(4-Fluoro-3-(2-hydroxyethoxy)phenyl)-N-(1-(3-(trifluoromethyl)benzyl)-1H-imidazol-4-yl)acrylamide Hydrochloride] | 2710 | 6.86 | – | 580 | 0.45 | 0.42 | – | 0.07 | – | – | – | – | – | – |
| O=C(/C=C/c1ccc(F)c(OCCO)c1)Nc1cn(Cc2cccc(Cl)c2)cn1 [Example 40] | 3330 | 7.45 | – | 580 | 0.18 | 0.48 | – | 0.05 | – | – | – | – | – | – |
| O=C(/C=C/c1cccnc1)Nc1cn(Cc2cccc(Cl)c2)cn1 [Example 41, (2E)-N-[1-(3-chlorobenzyl)-1H-imidazol-4-yl]-3-(pyridin-3-yl)prop-2-enamide] | 4290 | 5.79 | – | 590 | 0.54 | 0.89 | – | 0.73 | – | – | – | – | – | – |
| O=C(/C=C/C=C/c1ccccc1)Nc1cn(Cc2cccc(Cl)c2)cn1 [Example 46, (2E,4E)-N-(1-(3-Chlorobenzyl)-1H-imidazol-4-yl)-5-phenylpenta-2,4-dienamide] | 7600 | > 10 | – | 4670 | 0.62 | 2.62 | – | 0.79 | – | – | – | – | – | – |
| COc1ccc(C(=O)Nc2cn(Cc3cccc(Cl)c3)cn2)cc1OC [Example 141, N-[1-(3-chlorobenzyl)-1H-imidazol-4-yl]-3,4-dimethoxybenzamide] | 650 | 4.93 | – | 550 | 0.52 | 0.63 | – | 0.85 | – | – | – | – | – | – |
| COc1ccc(C(=O)Nc2cn(Cc3cc(F)c(F)cc3F)cn2)cc1OC [Example 143, 3,4-Dimethoxy-N-[1-(2,4,5-trifluorobenzyl)-1H-imidazol-4-yl]benzamide] | 5210 | 6.35 | – | 960 | 0.84 | 0.95 | – | 0.93 | – | – | – | – | – | – |
| COc1ccc(C(=O)Nc2cn(Cc3ccccc3F)cn2)cc1OC [Example 144] | – | – | – | – | – | – | – | – | 5600 | > 10 | 4320 | 4.71 | 5.72 | 5.81 |
| COc1ccc(C(=O)Nc2cn(Cc3cccc(F)c3)cn2)cc1OC [Example 145] | – | – | – | – | – | – | – | – | 630 | 1.62 | 340 | 0.62 | 0.62 | 0.7 |
| COc1ccc(C(=O)Nc2cn(Cc3ccc(F)cc3)cn2)cc1OC [Example 146] | – | – | – | – | – | – | – | – | 810 | 6.02 | 550 | 0.74 | 0.64 | 0.8 |
| COc1ccc(C(=O)Nc2cn(Cc3cccc(F)c3F)cn2)cc1OC [Example 147] | – | – | – | – | – | – | – | – | 5970 | 6.83 | 910 | 0.83 | 0.78 | 3.12 |
